Laboratory results published in PMC9728921, “Characterization of a KDM5 small molecule inhibitor with antiviral activity against hepatitis B virus” (PLOS ONE, 2022).
“Also recorded” adds a separate entry of the source.

What was measured:
H3K4me3:H3 = assay: Global H3K4me3:H3 ratio by ELISA in HBV-infected PHH; assay type: cell-based, human; conditions: single pulse dose; day nine
Procedure: For the pulse dose regimen, medium containing compound was removed after two hours incubation and replaced with fresh maintenance medium every three to four days. Cells in the pulse dose experiment received only one dose of compound (Day = 0). Histones were enriched from tissue and PBMC samples using the AbCam total histone extraction kit (Cambridge, UK; ab113476) according to the manufacturer’s protocol after cell/tissue dissociation with an IKA T10 TURRAX homogenizer (Wilmington, NC; […] Histones were enriched from 500,000 to 750,000 PHH. PHH monolayers were washed once with cold (4°C) 1X DPBS (Dulbecco’s phosphate buffered saline; 21-031-CV, Corning Inc.). Cold triton extraction buffer (TEB): 1X DPBS, 0.5% triton X-100 (Sigma-Aldrich, T9284), 2 mM phenylmethylsulfonyl fluoride (PMSF; Thermo Fisher Scientific, 36978), was added to the cell monolayer at a density of 1 x 10^6 cells/mL. After 10-minute incubation in TEB at 4°C, the cell monolayer was scraped and cells were pelleted by centrifuged at 1200 rpm at 4°C for 10 minutes. […] Total protein concentration of all samples following histone enrichment was determined using a bicinchoninic acid (BCA) assay (Thermo Fisher Scientific; 23225). […] Absorbance of each well was measured at 450 nm within five minutes using a SpectraMax Plus 384 Microplate Reader (Molecular Devices; PLUS 384).

[1] = system: host and viral transcriptomes in PHH; assay: RNA-seq of HBV-infected PHH; assay type: cell-based, human; conditions: 0.03, 0.3, or 10 μM; days 1, 3, 10, 13
Procedure: (D) Hallmark Gene Set. […] For comparison, downregulation of HBV mRNA for same dose and time regiment is shown at the top.
Library building and sequencing for RNA-seq of PHH and rat liver was performed on all samples at EA Genomics/Q2 Solutions (Morrisville, NC). Approximately 100 mg of rat liver tissue from the left later lobe was flash frozen immediately after collection. PHH were lysed into RLT buffer (Qiagen; 79216) and immediately frozen. Liver/PHH samples were homogenized in QIAzol Lysis Reagent (79306) and after addition of chloroform the samples were separated into aqueous and organic phases by centrifugation. Ethanol was added to the upper aqueous phase and the sample was applied to an RNeasy Mini spin column (74104) for purification and RNA eluted with water. Libraries were prepared using the Illumina TruSeq stranded mRNA sample preparation kit according to the manufacturer’s protocol (Illumina, Inc., Hayward, CA; RS-122-2103). Approximately 30 million 2 x 50 bp paired-end reads were collected per sample using the Illumina HiSeq2000 sequencing platform. Sequencing reads were aligned to the human, rat, or HBV genomes by STAR [49]. The Bioconductor packages edgeR [50] and limma were used to normalize sequence count data (counts per million; cpm) and conduct differential gene expression analysis. The false discovery rate (FDR) was calculated using the Benjamini-Hochberg method.

[2] = assay type: in vivo, human
Excerpt: Nevertheless, any further clinical evaluation of KMD5 inhibitors in other therapeutic areas should pay close attention to hepatotoxic effects, which might me associated with inhibition of the biologic target even at low levels of engagement.
For the clinical studies mentioned above, all patients signed an informed consent form before screening and in accordance with local regulatory and ethics committee requirements.

NSD3 = molecular target: T1, NSD3 (Homo sapiens, UniProt Q9BZ95); assay: Histone methyltransferase enzymatic assay, NSD3; assay type: biochemical; conditions: enzyme conc. 100 nM
T1 construct: 1021-1322; purchased RBC (read as Reaction Biology Corporation, named)
T1 sequence (Q9BZ95 1021-1322): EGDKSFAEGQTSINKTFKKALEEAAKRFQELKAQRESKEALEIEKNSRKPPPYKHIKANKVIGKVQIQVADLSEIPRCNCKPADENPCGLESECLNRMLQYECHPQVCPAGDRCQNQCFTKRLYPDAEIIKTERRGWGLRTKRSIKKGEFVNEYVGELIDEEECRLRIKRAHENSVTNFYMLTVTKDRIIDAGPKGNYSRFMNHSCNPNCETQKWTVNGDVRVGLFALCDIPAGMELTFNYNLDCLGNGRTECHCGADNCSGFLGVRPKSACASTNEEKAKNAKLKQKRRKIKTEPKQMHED
Procedure: (§1) Histone methyltransferase assays were performed in 96-well half-area optiplates (PerkinElmer) at room temperature. All concentrations are final unless noted otherwise. Compounds were serially diluted in DMSO and the final DMSO concentration was 1%. A 24 μL reaction mixture contained compound, enzyme, 200 nM of nucleosome or histone substrate, 400 nM ^3H-SAM (83.1 Ci/mmol), 50 mM Tris-HCl (pH 8.0), 50 mM NaCl, 5 mM MgCl2, 1 mM DTT, and 0.01% Tween-20. The plate was sealed, mixed on a Titramax plate shaker at 1200 rpm for 30 sec, and incubated at room temperature for 60 min. The reaction was quenched by addition of 24 μL mixture containing 5 mg/mL PVT-PEI beads and 300 μM unlabeled SAM in water. The plate was sealed, mixed as previously noted, incubated overnight, and read on a TopCount plate reader (PerkinElmer).
(§2) Data was analyzed using GraphPad Prism 6.0 (La Jolla, CA). […] IC50 values were calculated as an average of at least two independent experiments.

GLP = molecular target: T2, GLP (Homo sapiens, UniProt Q9H9B1); assay: Histone methyltransferase enzymatic assay, GLP; assay type: biochemical; conditions: enzyme conc. 100 nM; read-out: IC50
T2 construct: 894-1298; purchased RBC (read as Reaction Biology Corporation, named)
T2 sequence (Q9H9B1 894-1298): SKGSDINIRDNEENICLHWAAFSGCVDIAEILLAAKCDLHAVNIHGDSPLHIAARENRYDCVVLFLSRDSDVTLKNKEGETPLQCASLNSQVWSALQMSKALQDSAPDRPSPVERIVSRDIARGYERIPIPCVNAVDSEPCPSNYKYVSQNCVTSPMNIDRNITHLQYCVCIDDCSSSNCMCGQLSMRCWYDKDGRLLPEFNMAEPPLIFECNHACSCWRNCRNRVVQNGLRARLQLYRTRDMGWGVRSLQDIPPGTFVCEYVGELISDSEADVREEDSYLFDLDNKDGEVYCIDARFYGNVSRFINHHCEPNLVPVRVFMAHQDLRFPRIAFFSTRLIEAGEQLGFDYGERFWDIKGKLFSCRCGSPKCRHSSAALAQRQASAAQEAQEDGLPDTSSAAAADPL
Procedure: as §1, §2

PRMT1 = molecular target: T3, PRMT1 (Homo sapiens, UniProt Q99873); assay: Histone methyltransferase enzymatic assay, PRMT1; assay type: biochemical; conditions: enzyme conc. 100 nM
T3 construct: 2-371
T3 sequence (Q99873 2-371): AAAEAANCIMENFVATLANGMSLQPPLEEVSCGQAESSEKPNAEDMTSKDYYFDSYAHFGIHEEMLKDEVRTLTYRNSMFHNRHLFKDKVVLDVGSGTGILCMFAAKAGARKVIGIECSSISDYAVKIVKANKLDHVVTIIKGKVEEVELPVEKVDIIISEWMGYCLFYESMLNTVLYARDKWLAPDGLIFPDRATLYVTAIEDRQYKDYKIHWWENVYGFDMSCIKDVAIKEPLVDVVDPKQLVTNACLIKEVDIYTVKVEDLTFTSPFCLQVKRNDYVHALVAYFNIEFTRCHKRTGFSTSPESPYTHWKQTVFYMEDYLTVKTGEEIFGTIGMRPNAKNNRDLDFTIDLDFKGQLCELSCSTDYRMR
Procedure: as §1, §2

PRMT4 = molecular target: T4, PRMT4 (Homo sapiens, UniProt Q86X55); assay: Histone methyltransferase enzymatic assay, PRMT4; assay type: biochemical; conditions: enzyme conc. 100 nM
T4 construct: 2-608
T4 sequence (Q86X55 2-608): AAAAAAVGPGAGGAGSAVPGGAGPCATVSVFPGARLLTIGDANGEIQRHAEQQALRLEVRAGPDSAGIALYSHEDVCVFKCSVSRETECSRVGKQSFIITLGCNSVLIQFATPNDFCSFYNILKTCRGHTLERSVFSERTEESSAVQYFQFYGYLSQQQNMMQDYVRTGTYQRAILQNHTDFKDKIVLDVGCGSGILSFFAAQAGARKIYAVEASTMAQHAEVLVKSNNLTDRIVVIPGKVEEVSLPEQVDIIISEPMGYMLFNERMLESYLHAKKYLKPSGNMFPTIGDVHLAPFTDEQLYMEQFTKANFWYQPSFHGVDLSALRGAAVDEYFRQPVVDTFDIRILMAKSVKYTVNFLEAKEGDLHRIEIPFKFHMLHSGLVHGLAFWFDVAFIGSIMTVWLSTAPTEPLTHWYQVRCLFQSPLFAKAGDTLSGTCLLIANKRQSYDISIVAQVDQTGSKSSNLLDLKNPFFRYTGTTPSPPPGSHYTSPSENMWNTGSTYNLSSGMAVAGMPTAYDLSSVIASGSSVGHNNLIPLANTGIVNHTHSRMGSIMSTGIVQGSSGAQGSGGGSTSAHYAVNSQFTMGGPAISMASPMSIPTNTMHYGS
Procedure: as §1, §2

PRMT5/MEP50 = PRMT5/MEP50 (Homo sapiens, UniProt O14744); assay: Histone methyltransferase enzymatic assay, PRMT5/MEP50; assay type: biochemical; conditions: enzyme conc. 100 nM
Sequence of PRMT5/MEP50 (O14744 2-637): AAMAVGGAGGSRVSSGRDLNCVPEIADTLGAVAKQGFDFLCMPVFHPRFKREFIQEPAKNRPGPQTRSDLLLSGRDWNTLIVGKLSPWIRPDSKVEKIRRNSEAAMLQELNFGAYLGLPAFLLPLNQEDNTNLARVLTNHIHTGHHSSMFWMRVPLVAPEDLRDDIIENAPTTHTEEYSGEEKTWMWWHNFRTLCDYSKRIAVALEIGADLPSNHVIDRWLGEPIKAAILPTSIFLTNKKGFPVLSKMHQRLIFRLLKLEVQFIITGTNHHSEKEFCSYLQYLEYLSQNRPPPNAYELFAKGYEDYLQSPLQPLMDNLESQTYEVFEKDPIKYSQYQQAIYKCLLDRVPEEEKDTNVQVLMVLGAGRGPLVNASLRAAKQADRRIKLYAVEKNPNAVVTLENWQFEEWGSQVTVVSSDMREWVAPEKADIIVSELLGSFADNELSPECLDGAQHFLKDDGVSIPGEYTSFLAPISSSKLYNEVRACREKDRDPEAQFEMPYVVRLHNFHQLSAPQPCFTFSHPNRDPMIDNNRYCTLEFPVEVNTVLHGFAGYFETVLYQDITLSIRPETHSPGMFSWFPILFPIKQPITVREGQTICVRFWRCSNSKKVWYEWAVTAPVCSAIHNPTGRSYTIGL
Sequence of PRMT5/MEP50 (Q9BQA1 3-342 partner limits assumed): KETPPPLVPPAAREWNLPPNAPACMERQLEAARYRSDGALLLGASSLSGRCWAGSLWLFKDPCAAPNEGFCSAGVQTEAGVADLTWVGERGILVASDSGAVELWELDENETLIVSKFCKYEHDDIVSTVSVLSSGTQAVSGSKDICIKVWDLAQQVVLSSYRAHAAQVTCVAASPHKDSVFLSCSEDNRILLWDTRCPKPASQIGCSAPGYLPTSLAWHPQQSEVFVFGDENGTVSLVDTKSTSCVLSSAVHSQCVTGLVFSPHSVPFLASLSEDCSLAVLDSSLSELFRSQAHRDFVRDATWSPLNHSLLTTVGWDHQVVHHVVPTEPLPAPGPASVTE
Procedure: as §1, §2

Row | IC50 (NSD3) | IC50 (GLP) | IC50 (PRMT1) | IC50 (PRMT4) | IC50 (PRMT5/MEP50) | SMILES | H3K4me3:H3 level (H3K4me3:H3) | levels of HBV mRNA as measured by RNA-seq [1] | HBV antigen level decreases ([2]; HBV patients, to be published elsewhere) | liver toxicity ([2]; human, in vivo)
1 | – | – | – | – | – | CCOC(=O)c1ccnc(CNCC(=O)N(CC)CCN(C)C)c1 [GS-5801] | almost back to baseline levels; also recorded: near baseline levels | decreased after GS-5801 treatment in a dose and time dependent manner | absence of any HBV antigen level decreases | dose limiting, reversible liver toxicity
2 | > 100 µM | > 100 µM | > 100 µM | > 100 µM | > 100 µM | CCN(CCN(C)C)C(=O)CNCc1cc(C(=O)O)ccn1 [GS-080] | – | – | – | –
